“And” between values parts separate entries of the source, which are not always exact repeats. Equal entries are not always repeated.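 Cells were grown in 96-well plates and exposed to each compound for 48 hours at five concentrations; endpoints were interpolated linearly between bracketing concentrations, or set to the highest concentration if not reached. GI50 is the concentration that inhibits growth by half. The concentration for full growth arrest is given as TGI.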
Columns and labels:
Test in all cases: DTP human tumour cell line panel, 48 h
[1] = test system: HCT-15 colon
[2] = test system: COLO 205 colon
[3] = test system: EKVX NSCLC
[4] = test system: NCI-H226 lung
[5] = test system: HOP-62 NSCLC
[6] = test system: OVCAR-4 ovarian
[7] = test system: NCI-H460 lung
[8] = test system: SNB-75 CNS
[9] = test system: A498 renal
[10] = test system: SW-620 colon

| Compound | TGI [1] | TGI [2] | TGI [3] | TGI [4] | TGI [5] | TGI [6] | TGI [7] [µM] | TGI [8] | TGI [9] | TGI [10] [µM] | GI50 [5] | GI50 [9] | GI50 [1] [nM] | GI50 [4] | GI50 [6] [nM] | GI50 [7] [µM] | GI50 [8] [nM] | GI50 [2] [nM] | GI50 [3] [µM] | GI50 [10] [nM] |
| --- | --- | --- | --- | --- | --- | --- | --- | --- | --- | --- | --- | --- | --- | --- | --- | --- | --- | --- | --- | --- |
| C[C@]12CCC3=NCCN3C1=CC[C@@H]1[C@@H]2CC[C@@]2(C)[C@H]1CC[C@]2(C)O | > 100 µM | 75.5 µM | > 100 µM | 96.3 µM | > 100 µM | > 100 µM | > 100 | > 100 µM | 77.6 µM | > 100 | – | – | – | – | – | – | – | – | – | – |
| O=c1cccccc1[O-].O=c1cccccc1[O-].O=c1cccccc1[O-].[Sm+3] | > 100 µM | – | > 100 µM | > 100 µM | > 100 µM | > 100 µM | > 100 | – | > 100 µM | > 100 | 37.1 µM | 87.5 µM | – | – | – | – | – | – | – | – |
| COC(=O)C1CCC(=O)N1/C(C)=N/NC(=O)Nc1ccc(Cl)c(Cl)c1 (configuration not stated) | 68.7 µM | > 100 µM | > 100 µM | – | > 100 µM | > 100 µM | > 100 | > 100 µM | > 100 µM | > 100 | – | – | – | – | – | – | – | – | – | – |
| CC(=O)[O-].[Mn+3].[O-]c1ccc(Cl)cc1C=NCCN=Cc1cc(Cl)ccc1[O-] | > 100 µM | – | – | > 100 µM | – | > 100 µM | > 100 | > 100 µM | > 100 µM | – | – | > 100 µM | > 100000 | > 100 µM | > 100000 | > 100 | > 100000 | – | – | – |
| CCOc1ccccc1NC(=O)C1=C(C)NC(C)=C(C(=O)Nc2ccccc2OCC)C1c1ccc([N+](=O)[O-])cc1 | > 100 µM | > 100 µM | > 100 µM | > 100 µM | > 100 µM | > 100 µM | > 100 | > 100 µM | > 100 µM | > 100 | – | – | – | – | – | – | – | – | – | – |
| O=C(OC[C@@H]1CO1)c1cccc2c(=O)c3ccccc3[nH]c12 | 3.36 µM | 1.41 µM | 3.72 µM | 1.48 µM | 3.45 µM | 4.72 µM | 1.75 | 1.49 µM | 3.56 µM | 1.16 | 0.357 µM | 1.76 µM | 307 | 0.301 µM | 671 | 0.38 | 288 | 246 | 0.856 | 64.9 |
| O=C(CC1=Nc2nnc(-c3nnc4n3C(=O)C(CC(=O)C3CC3)=N4)n2C1=O)C1CC1 | > 100 µM | > 100 µM | – | > 100 µM | > 100 µM | > 100 µM | > 100 | > 100 µM | > 100 µM | > 100 | – | – | – | – | – | – | – | – | – | – |
| COC(=O)c1sc(=NC(=S)N2CCCCC2)sc1C(=O)OC | > 100 µM | > 100 µM | – | > 100 µM | > 100 µM | > 100 µM | > 100 | > 100 µM | > 100 µM | > 100 | – | – | – | – | – | – | – | – | – | – |
| OCCCCC#Cc1ccccc1C#Cc1ccc(C(F)(F)F)cc1 | 25.4 µM | 33 µM | 35.9 µM | 34.1 µM | 24.3 µM | 23.9 µM | 60.3 | 30.2 µM | 28.6 µM | 35.2 | 11.4 µM | 15 µM | 12500 | 18.7 µM | 11200 | 23.3 | 15800 | 17400 | 18.4 | 17000 |
| c1cncc(C2ONC3=NCCN32)c1 (configuration not stated) | 54.7 µM | > 100 µM | > 100 µM | 68.7 µM | 91.1 µM | > 100 µM | > 100 | 98.1 µM | 40.2 µM | > 100 | 30 µM | 16.6 µM | 11500 | 20 µM | > 100000 | 31 | 22400 | 27700 | 23.2 | 35500 |
| C=C(Cl)[C@@](Cl)(CBr)CC[C@@H](Br)C(C)(C)Cl | 4.99 µM and 1.97 µM | – | 15.1 µM and 7 µM | 31 µM and 50.8 µM | 0.606 µM and 0.304 µM | 7.36 µM and 3.15 µM | – | – | 5.57 µM and 1.93 µM | – | – | – | 866 | – | 2290 | – | 1350 | 776 | – | 778 |
| COc1ccc(-c2cc(-c3ccccc3)nc(NCCNc3ccnc4cc(Cl)ccc34)n2)cc1 | 2.09 µM | 3.83 µM | 3.59 µM | 4.56 µM | 3.7 µM | 3.71 µM | 3.72 | 3.05 µM | 3.16 µM | 2.99 | 1.87 µM | 1.63 µM | 591 | 1.96 µM | 1930 | 1.92 | 1600 | 1840 | 1.79 | 1320 |
| O=c1[nH]c2ccc([N+](=O)[O-])c(Cl)c2c2ccccc12 | > 100 µM | 26.3 µM | 19.9 µM | 43.9 µM | > 100 µM | 24.7 µM | 4.47 | 56.7 µM | 80.2 µM | 17.9 | – | – | – | – | – | – | – | – | – | – |
| N#CCC1(n2cc(-c3ncnc4[nH]ccc34)cn2)CN(C2CCN(C(=O)c3ccnc(C(F)(F)F)c3F)CC2)C1 | > 100 µM | > 100 µM | > 100 µM | > 100 µM | > 100 µM | > 100 µM | > 100 | > 100 µM | > 100 µM | > 100 | > 100 µM | 29.1 µM | > 100000 | 19.3 µM | > 100000 | > 100 | 25700 | 57800 | > 100 | 83500 |
| NC(N)=N/N=C(/c1ccccc1)c1ccccc1F | 13.8 µM | 7.01 µM | 53 µM | 22 µM | 18.2 µM | 32 µM | 10.4 | 21.7 µM | 9.44 µM | 21.1 | 4.62 µM | 2.28 µM | 1980 | 5.35 µM | 1730 | 2.31 | 661 | 2160 | 6.89 | 2750 |
| Cc1nc2c(Br)cc(Br)cc2c(=O)n1-c1ccccc1NC1OCC(O)C(O)C1O (configuration not stated) | > 100 µM | 34.2 µM and > 100 µM | > 100 µM | > 100 µM and 48.9 µM | > 100 µM and 35.7 µM | > 100 µM | – | > 100 µM and 53.2 µM | > 100 µM and 45.6 µM | > 100 | > 100 µM and 10.3 µM | 87.2 µM and 18.3 µM | – | 42.3 µM and 16.2 µM | – | – | – | – | – | – |
